This note sets out measurements from patent US7683168B2, “Compositions of novel opioid compounds and method of use thereof” (priority 2005, dated 2010).

In series [1] the test system is seizure-like convulsions in mice. The experiment in a line: mouse seizure-like convulsions. In kind it is in vivo. The procedure, abridged: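 Male CD-1 mice (Charles River, Raleigh, N.C.) of 20-25 g were dosed and watched for one hour to detect seizure-like convulsions mediated by central delta receptors. An event was counted when clonic or tonic/clonic muscle movements involved the whole body, usually followed by brief catalepsy, judged by no attempt to withdraw front paws from a bar 2-3 inches above the floor.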

Series [2] has as its system guinea pig ileum. The series can be described thus: electrically stimulated guinea pig ileum (GPI) ED50. In kind it is cell-based. The settings on record: Cavia porcellus; ED50, inhibition of electrically induced contractions. As for the experimental part: Further the compounds of formula (1) were evaluated for in vitro opioid receptor activity in various receptor systems, including mouse vas deferens (Mouse Vas Deferens ED50), and guinea pig ileum (Guinea Pig Ileum ED50). The assay procedures used for such determinations of receptor activity are set out below.
Intact ileums (about 3 cm length) were removed from guinea pig and suspended with 1 g of tension in a bath chamber as described for the vasa deferentia. The ileums were stimulated with electrical square-wave pulses of 0.1-Hz, 1 msec pulse duration at supramaximal voltage.
The ED50 values were extrapolated from curves showing the dose concentration plotted against the response (J. A. H. Lord, A. A. Waterfield, J. Hughes, H. W. Kosterlitz, Nature 267, 495, (1977)).

The target in series [3] is T1, human delta receptor (Homo sapiens, UniProt P41143).
T1 construct: purchased Perkin Elmer, Boston, Mass; 6110549; host or cells: HEK-293 cells
T1 sequence (P41143 whole entry): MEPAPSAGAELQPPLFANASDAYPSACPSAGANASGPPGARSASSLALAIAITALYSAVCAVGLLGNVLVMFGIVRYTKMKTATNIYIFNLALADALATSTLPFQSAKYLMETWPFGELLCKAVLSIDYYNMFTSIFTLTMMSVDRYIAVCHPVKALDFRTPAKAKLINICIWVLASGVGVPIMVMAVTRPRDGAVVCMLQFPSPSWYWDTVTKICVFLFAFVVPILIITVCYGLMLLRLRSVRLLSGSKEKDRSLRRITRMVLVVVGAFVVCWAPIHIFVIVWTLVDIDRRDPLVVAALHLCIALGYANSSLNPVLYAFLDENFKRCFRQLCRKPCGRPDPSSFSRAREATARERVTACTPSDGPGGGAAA
The series can be described thus: radioligand binding, human delta receptor, HEK-293 cell membranes. The settings on record: cell not marked (rat), species not given, read-out: δ.

The target in series [4] is T2, human mu opioid receptor (Homo sapiens, UniProt P35372).
T2 construct: purchased Perkin Elmer, Boston, Mass; 6110535; host or cells: CHO cells
T2 sequence (P35372 whole entry): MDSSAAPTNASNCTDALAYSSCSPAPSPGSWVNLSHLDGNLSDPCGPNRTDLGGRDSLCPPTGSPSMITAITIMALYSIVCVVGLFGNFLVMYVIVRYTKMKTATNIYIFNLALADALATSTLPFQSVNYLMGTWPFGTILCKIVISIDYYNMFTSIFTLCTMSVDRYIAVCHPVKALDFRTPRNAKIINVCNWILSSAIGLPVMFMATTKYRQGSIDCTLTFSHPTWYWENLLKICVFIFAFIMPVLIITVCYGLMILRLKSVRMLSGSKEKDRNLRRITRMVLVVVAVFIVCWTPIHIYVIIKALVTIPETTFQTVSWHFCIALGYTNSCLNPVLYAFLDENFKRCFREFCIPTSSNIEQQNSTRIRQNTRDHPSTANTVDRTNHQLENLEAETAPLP
The experiment in a line: radioligand binding, human mu opioid receptor, CHO cell membranes. The settings on record: species not given, read-out: μ.

The test system of series [5] is mouse vas deferens. The experiment in a line: electrically stimulated mouse vas deferens (MVD) ED50. In kind it is cell-based. As to conditions: ED50, inhibition of electrically induced contractions.

The structures appear in SMILES notation.

As a reminder, the EC50 is the midpoint of the concentration-response curve. Read a high EC50 as a need for much substance. `C=CCN1C[C@H](C)N([C@@H](c2cccc(O)c2)c2cccc(C(=O)N3CCN(CCCCC(=O)O)CC3)c2)C[C@H]1C` [Example 84, 5-(4-{3-[(R)-((2S,5R)-4-Allyl-2,5-dimethyl-piperazin-1-yl)-(3-hydroxy-phenyl)-methyl]-benzoyl}-piperazin-1-yl)-pentanoic acid] displayed a Seiz. in series [1] (10 mg/kg IV) of 0% 10 mg/kg IV. Further, the values for the EC50 in series [2] and in series [5] were 209 nM and 3.76 nM, respectively. Also, the Ki in series [3] came out at 13.4 nM; in series [4], 57.3 nM.

In the case of `CCOC(=O)CN1CCCN(C(=O)c2cccc(C(c3cccc(O)c3)N3C[C@@H](C)N(Cc4cccc(F)c4)C[C@@H]3C)c2)CC1` (some centres unmarked), the Seiz. in series [1] (10 mg/kg IV) came to 20% 10 mg/kg IV. Further, the EC50 in series [2] was found to be 761 nM; in series [5] it was 13.4 nM. Besides, the Ki in series [3] worked out at 5.4 nM; in series [4], 2.6 nM.

`C=CCN1C[C@H](C)N([C@@H](c2cccc(O)c2)c2cccc(C(=O)N3CCN(CCCC(=O)O)CC3)c2)C[C@H]1C` [Example 75] registered a Seiz. in series [1] (10 mg/kg IV) of 0% 10 mg/kg IV. The EC50 amounted to 178 nM in series [2] and 4.1 nM in series [5]. For the same compound, the Ki was 25.3 nM in series [3] and 10.8 nM in series [4].

In series [1] (10 mg/kg IV), `CCOC(=O)C1CCN(C(=O)c2cccc([C@H](c3cccc(O)c3)N3C[C@@H](C)N(Cc4cccc(F)c4)C[C@@H]3C)c2)CC1` [Example 124, 1-{3-[(R)-[(2S,5R)-4-(3-Fluoro-benzyl)-2,5-dimethyl-piperazin-1-yl]-(3-hydroxy-phenyl)-methyl]-benzoyl}-piperidine-4-carboxylic acid ethyl ester] gave a Seiz. of 10% 10 mg/kg IV. The EC50 came out at 1680 nM in series [2] and 2.54 nM in series [5]. For the same compound, the figures for the Ki in series [3] and in series [4] were 28.6 nM and 3.5 nM, respectively.

Turning to `C=CCN1C[C@H](C)N([C@@H](c2cccc(O)c2)c2cccc(C(=O)N3CCC(C(=O)OCC)CC3)c2)C[C@H]1C` [Example 119, 1-{3-[(R)-((2S,5R)-4-Allyl-2,5-dimethylpiperazin-1-yl)-(3-hydroxy-phenyl)methyl]benzoyl}piperidine-4-carboxylic acid ethyl ester], the Seiz. in series [1] (10 mg/kg IV) was 80% 10 mg/kg IV. The half-maximal effective concentration (EC50) in series [2] worked out at 86.3 nM; in series [5] it was 1.96 nM. Also, the Ki in series [3] stood at 2.95 nM; in series [4] it was 0.54 nM.

As for `CCOC(=O)CCN1CCCN(C(=O)c2cccc([C@H](c3cccc(O)c3)N3C[C@@H](C)N(Cc4cccc(F)c4)C[C@@H]3C)c2)CC1`, the Seiz. in series [1] (10 mg/kg IV) was 20% 10 mg/kg IV. For the same compound, the EC50 in series [2] stood at 978 nM; in series [5], 17.1 nM. The results for the Ki in series [3] and in series [4] were 71 nM and 4.8 nM, respectively.

For `C=CCN1C[C@H](C)N(C(c2cccc(O)c2)c2cccc(C(=O)N3CCCN(Cc4ccc(C(=O)O)cc4)CC3)c2)C[C@H]1C` (some centres unmarked), the Seiz. in series [1] (10 mg/kg IV) stood at 0% 10 mg/kg IV. Besides, the results for the EC50 in series [2] and in series [5] were 150 nM and 3.1 nM, respectively. In addition, the Ki in series [3] was determined as 0.39 nM; in series [4] it was 4 nM.

As to `C[C@@H]1CN(C(c2cccc(O)c2)c2cccc(C(=O)N3CCCN(CCCC(=O)O)CC3)c2)[C@@H](C)CN1Cc1ccccc1` (some centres unmarked), the Seiz. in series [1] (10 mg/kg IV) came to 0% 10 mg/kg IV. For the same compound, the figures for the EC50 in series [2] and in series [5] were 159 nM and 1.07 nM, respectively. Besides, the Ki in series [3] amounted to 14.8 nM; in series [4], 1.9 nM.

As for `CCOC(=O)C1CCN(C(=O)c2cccc([C@H](c3cccc(O)c3)N3C[C@@H](C)N(CC4CC4)C[C@@H]3C)c2)CC1` [Example 126, 1-{3-[(R)-((1S,4R)-4-Cyclopropylmethyl-2,5-dimethyl-piperazin-1-yl)-(3-hydroxy-phenyl)-methyl]-benzoyl}-piperidine-4-carboxylic acid ethyl ester], the Seiz. in series [1] (10 mg/kg IV) is 10% 10 mg/kg IV. The 50% effective concentration (EC50) in series [2] was found to be 3310 nM; in series [5], 8.64 nM. The Ki in series [3] amounted to 3.7 nM; in series [4], 1.5 nM.

`C[C@@H]1CN([C@@H](c2cccc(O)c2)c2cccc(C(=O)N3CCN(CCCC(=O)O)CC3)c2)[C@@H](C)CN1Cc1ccccc1` [Example 80, 4-(4-{3-[(R)-((2S,5R)-4-Benzyl-2,5-dimethyl-piperazin-1-yl)-(3-hydroxy-phenyl)-methyl]-benzoyl}-piperazin-1-yl)-butyric acid] came in with a Seiz. in series [1] (10 mg/kg IV) of 0% 10 mg/kg IV. Further, the EC50 is 104 nM in series [2] and 0.34 nM in series [5]. Moreover, the Ki in series [3] is 5.7 nM; in series [4], 5.3 nM.

`C[C@@H]1CN([C@@H](c2cccc(O)c2)c2cccc(C(=O)N3CCCN(CCC(=O)O)CC3)c2)[C@@H](C)CN1CC1CC1`: the Seiz. in series [1] (20 mg/kg IV) stood at 0% 20 mg/kg IV. Besides, the values for the EC50 in series [2] and in series [5] were 664 nM and 66 nM, respectively. Also, the Ki was found to be 69 nM in series [3] and 22.3 nM in series [4].

In turn, `C=CCN1C[C@H](C)N([C@@H](c2cccc(O)c2)c2cccc(C(=O)N3CCC(O)CC3)c2)C[C@H]1C` [Example 134, {3-[(R)-((2S,5R)-4-Allyl-2,5-dimethyl-piperazin-1-yl)-(3-hydroxy-phenyl)-methyl]-phenyl}-(4-hydroxy-piperidin-1-yl)-methanone] displayed a Seiz. in series [1] (10 mg/kg IV) of 0% 10 mg/kg IV. In addition, the concentration for a half-maximal effect (EC50) in series [2] turned out to be 46.7 nM; in series [5] it was 5.44 nM. Also, the Ki in series [3] turned out to be 0.36 nM; in series [4], 1.1 nM.

Take `CCOC(=O)C1CCN(C(=O)c2cccc([C@H](c3cccc(O)c3)N3C[C@@H](C)N(Cc4ccccc4)C[C@@H]3C)c2)CC1` [Example 122, 1-{3-[(R)-((2S,5R)-4-Benzyl-2,5-dimethyl-piperazin-1-yl)-(3-hydroxy-phenyl)-methyl]-benzoyl}-piperidine-4-carboxylic acid ethyl ester]: the Seiz. in series [1] (10 mg/kg IV) was 70% 10 mg/kg IV. For the same compound, the 50% effective concentration (EC50) came out at 153 nM in series [2] and 0.82 nM in series [5]. Moreover, the Ki in series [3] was found to be 4.5 nM; in series [4], 1.9 nM.

Consider `CCOC(=O)CN1CCCN(C(=O)c2cccc(C(c3cccc(O)c3)N3C[C@@H](C)N(Cc4ccccc4)C[C@@H]3C)c2)CC1` (some centres unmarked), for which the Seiz. in series [1] (10 mg/kg IV) was 60% 10 mg/kg IV. Also, the 50% effective concentration (EC50) in series [2] amounted to 526 nM; in series [5], 2.4 nM. Further, the Ki in series [3] amounted to 0.21 nM; in series [4] it was 0.56 nM.

In the case of `CCOC(=O)CCN1CCCN(C(=O)c2cccc([C@H](c3cccc(O)c3)N3C[C@@H](C)N(CC4CC4)C[C@@H]3C)c2)CC1`, the Seiz. in series [1] (10 mg/kg IV) was found to be 0% 10 mg/kg IV. The 50% effective concentration (EC50) was determined as 567 nM in series [2] and 22.6 nM in series [5]. Moreover, the figures for the Ki in series [3] and in series [4] were 121 nM and 2.9 nM, respectively.

In the case of `CCOC(=O)CN1CCN(C(=O)c2cccc([C@H](c3cccc(O)c3)N3C[C@@H](C)N(Cc4ccccc4)C[C@@H]3C)c2)CC1` [Example 68, (4-{3-[(R)-((2S,5R)-4-Benzyl-2,5-dimethyl-piperazin-1-yl)-(3-hydroxy-phenyl)-methyl]-benzoyl}-piperazin-1-yl)-acetic acid ethyl ester], in series [1] (10 mg/kg IV), the Seiz. is recorded as 80% 10 mg/kg IV. Also, the figures for the EC50 in series [2] and in series [5] were 526 nM and 1.91 nM, respectively. For the same compound, the Ki in series [3] worked out at 0.73 nM; in series [4] it was 1.22 nM.

With `C[C@@H]1CN([C@@H](c2cccc(O)c2)c2cccc(C(=O)N3CCC(C(=O)O)CC3)c2)[C@@H](C)CN1CC1CC1` [Example 127, 1-{3-[(R)-((1S,4R)-4-Cyclopropylmethyl-2,5-dimethyl-piperazin-1-yl)-(3-hydroxy-phenyl)-methyl]-benzoyl}-piperidine-4-carboxylic acid], the Seiz. in series [1] (10 mg/kg IV) came out at 0% 10 mg/kg IV. In addition, the EC50 in series [2] came out at 242 nM; in series [5] it was 11.5 nM. Moreover, the Ki in series [3] came out at 4.35 nM.

In the case of `C[C@@H]1CN([C@@H](c2cccc(O)c2)c2cccc(C(=O)N3CCN(CC(=O)O)CC3)c2)[C@@H](C)CN1Cc1ccccc1` [Example 69, (4-{3-[(R)-((2S,5R)-4-Benzyl-2,5-dimethyl-piperazin-1-yl)-(3-hydroxy-phenyl)-methyl]-benzoyl}-piperazin-1-yl)-acetic acid], the Seiz. in series [1] (10 mg/kg IV) was 0% 10 mg/kg IV. The EC50 in series [2] worked out at 47.8 nM; in series [5] it was 0.48 nM. Besides, the results for the Ki in series [3] and in series [4] were 0.54 nM and 1.36 nM, respectively.

Consider `C[C@@H]1CN([C@@H](c2cccc(O)c2)c2cccc(C(=O)N3CCCN(CCC(=O)O)CC3)c2)[C@@H](C)CN1Cc1cccc(F)c1`, for which the Seiz. in series [1] (20 mg/kg IV) and in series [1] (200 mg/kg PO & SC) was 0% 200 mg/kg PO & SC 0% 20 mg/kg IV each time. In addition, the EC50 is 154 nM in series [2] and 4 nM in series [5]. Further, the Ki amounted to 4.17 nM in series [3] and 7.7 nM in series [4].
